Experimental data reported in ChEMBL document CHEMBL1201862, “PubChem BioAssay data set” (2004).
The source made the active and inactive calls.

Experiments:
[1] = A High Throughput Confirmatory Assay used to Identify Novel Compounds that Inhibit Mycobacterium Tuberculosis in the absence of Glycerol.; type: functional
[2] = molecular target: T1, Heat shock factor protein 1 (Mus musculus, UniProt P38532); experiment: HSF1 potentiators in luciferase reporter cells, confirmation, cell-based, NIH3T3, luminescence, dose retest (AID 435004); type: functional;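 further: stress induced by proteasome inhibitor MG132 added 30 min after compound; luciferase reporter driven by HSF1 response element in NIH3T3 cells; actives raise luminescence as potentiators of the MG132 stress response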
T1 sequence (P38532 whole entry): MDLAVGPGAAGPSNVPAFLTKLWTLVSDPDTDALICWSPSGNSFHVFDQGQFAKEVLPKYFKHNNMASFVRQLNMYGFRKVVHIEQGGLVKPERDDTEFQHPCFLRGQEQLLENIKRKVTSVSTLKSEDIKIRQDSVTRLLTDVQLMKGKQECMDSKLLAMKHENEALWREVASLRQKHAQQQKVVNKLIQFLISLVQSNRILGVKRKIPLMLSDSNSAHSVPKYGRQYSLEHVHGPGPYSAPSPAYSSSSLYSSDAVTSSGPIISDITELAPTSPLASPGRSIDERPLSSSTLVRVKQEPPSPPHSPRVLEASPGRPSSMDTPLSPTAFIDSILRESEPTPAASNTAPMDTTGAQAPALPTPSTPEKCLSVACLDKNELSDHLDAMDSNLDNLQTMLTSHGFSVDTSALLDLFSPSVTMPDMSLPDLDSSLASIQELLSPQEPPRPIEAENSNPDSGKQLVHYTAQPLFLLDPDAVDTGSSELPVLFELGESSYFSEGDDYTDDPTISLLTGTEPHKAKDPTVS

[3] = molecular target: T2, Replicative DNA helicase DnaB (Mycobacterium tuberculosis, UniProt P9WMR3); experiment: DnaB intein splicing inhibitors, dose response, biochemical, cell-free fluorescence (AID 449749); type: functional
T2 sequence (P9WMR3 whole entry): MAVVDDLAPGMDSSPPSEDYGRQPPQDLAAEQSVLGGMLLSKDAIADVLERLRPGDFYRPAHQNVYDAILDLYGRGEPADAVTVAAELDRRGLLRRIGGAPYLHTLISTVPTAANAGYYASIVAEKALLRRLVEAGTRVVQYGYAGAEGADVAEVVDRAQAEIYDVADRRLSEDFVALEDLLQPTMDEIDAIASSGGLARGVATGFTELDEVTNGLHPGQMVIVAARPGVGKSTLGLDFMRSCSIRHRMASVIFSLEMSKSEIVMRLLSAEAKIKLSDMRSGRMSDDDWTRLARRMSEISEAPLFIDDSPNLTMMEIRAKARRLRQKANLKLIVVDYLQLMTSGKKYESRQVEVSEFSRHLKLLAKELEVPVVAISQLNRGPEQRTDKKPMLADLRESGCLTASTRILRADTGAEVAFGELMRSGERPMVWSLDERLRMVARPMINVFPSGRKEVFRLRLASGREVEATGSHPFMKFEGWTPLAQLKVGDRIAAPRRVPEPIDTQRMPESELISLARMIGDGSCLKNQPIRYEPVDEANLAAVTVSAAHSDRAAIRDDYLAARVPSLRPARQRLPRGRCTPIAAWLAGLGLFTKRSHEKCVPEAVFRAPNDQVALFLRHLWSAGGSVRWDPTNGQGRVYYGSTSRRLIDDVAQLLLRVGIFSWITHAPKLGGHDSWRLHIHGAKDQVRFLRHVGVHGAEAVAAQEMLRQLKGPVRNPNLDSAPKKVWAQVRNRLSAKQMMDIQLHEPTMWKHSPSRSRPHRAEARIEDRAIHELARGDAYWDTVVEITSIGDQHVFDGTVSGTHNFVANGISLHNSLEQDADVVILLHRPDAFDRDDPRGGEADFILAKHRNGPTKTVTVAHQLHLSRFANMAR

[4] = cytotoxicity in HPDE-C7 cells, cell-based, fluorescence, HTS (AID 430); type: functional; settings: Homo sapiens
Protein RecA = molecular target: T3, Protein RecA (Mycobacterium tuberculosis, UniProt P9WHJ3); experiment: Fluorescence Cell-Free Homogeneous Dose Retest to Identify Inhibitors of RecA-Intein Splicing Activity. [Related pubchem assays (depositor defined):AID2097, AID2223, AID489010, AID492950]; type: functional
T3 sequence (P9WHJ3 whole entry): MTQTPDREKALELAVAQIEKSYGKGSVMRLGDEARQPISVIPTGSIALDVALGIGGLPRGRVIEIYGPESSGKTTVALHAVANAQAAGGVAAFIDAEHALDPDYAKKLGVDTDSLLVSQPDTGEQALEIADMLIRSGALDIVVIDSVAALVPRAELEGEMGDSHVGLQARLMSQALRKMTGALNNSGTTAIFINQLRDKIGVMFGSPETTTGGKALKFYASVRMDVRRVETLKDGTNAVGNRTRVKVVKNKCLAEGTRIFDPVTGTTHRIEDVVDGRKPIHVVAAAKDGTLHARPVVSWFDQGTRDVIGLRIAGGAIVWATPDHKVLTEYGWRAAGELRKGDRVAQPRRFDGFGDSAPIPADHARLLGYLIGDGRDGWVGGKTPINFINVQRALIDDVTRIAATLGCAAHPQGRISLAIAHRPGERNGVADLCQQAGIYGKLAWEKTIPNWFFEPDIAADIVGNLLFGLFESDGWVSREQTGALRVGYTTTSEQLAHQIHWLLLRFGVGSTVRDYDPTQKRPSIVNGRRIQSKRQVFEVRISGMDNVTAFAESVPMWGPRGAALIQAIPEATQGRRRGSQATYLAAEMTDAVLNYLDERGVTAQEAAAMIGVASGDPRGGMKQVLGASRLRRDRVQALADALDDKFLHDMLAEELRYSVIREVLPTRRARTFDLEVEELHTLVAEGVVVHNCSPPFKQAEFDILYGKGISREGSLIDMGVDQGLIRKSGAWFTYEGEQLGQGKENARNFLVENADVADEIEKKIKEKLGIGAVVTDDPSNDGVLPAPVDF

[5] = cytotoxicity in KRAS-transformed pancreatic duct cells, primary screen, cell-based, fluorescence, HTS (AID 431); type: functional; settings: Homo sapiens;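 further: cell line used: HPDE-C7K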
[6] = molecular target: T4, Short transient receptor potential channel 4 (Mus musculus, UniProt Q9QUQ5); experiment: mouse TRPC4 channel inhibitors, dose response, cell-based, HEK293 TRPC4/mu-opioid, Fluo-4 calcium (AID 434942); type: functional;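 further: potency of inhibitors blocking the TRPC4 calcium response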
T4 sequence (Q9QUQ5 whole entry): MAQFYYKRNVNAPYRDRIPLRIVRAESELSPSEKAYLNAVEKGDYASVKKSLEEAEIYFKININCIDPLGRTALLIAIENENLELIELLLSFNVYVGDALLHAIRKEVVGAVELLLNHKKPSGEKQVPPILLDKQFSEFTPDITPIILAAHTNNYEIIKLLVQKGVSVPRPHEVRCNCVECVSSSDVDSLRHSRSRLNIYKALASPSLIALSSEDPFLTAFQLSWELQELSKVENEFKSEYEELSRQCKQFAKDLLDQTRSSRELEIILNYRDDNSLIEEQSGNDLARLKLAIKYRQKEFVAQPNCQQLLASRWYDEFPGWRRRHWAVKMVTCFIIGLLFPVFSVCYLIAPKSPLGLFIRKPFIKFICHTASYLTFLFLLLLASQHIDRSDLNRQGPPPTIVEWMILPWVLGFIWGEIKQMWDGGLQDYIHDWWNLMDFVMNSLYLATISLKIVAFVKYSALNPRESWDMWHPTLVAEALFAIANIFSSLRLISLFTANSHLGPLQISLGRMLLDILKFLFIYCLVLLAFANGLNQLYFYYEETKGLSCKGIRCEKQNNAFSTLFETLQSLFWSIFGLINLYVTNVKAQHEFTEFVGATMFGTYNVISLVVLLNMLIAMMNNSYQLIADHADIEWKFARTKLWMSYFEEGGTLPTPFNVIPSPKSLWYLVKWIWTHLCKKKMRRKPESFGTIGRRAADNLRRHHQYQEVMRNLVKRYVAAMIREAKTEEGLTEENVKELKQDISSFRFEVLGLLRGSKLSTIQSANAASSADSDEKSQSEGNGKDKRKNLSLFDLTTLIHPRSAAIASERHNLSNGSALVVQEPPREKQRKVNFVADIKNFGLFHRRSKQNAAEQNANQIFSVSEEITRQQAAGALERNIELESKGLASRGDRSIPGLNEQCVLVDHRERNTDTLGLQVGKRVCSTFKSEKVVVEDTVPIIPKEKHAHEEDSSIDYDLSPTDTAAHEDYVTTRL

[7] = microbe, parasite or virus in culture; type: functional; settings: Mycobacterium tuberculosis
[8] = A Cell Based Secondary Assay To Explore Cytotoxicity of Compounds that Sensitize Mycobacterium Tuberculosis to Beta-Lactam Antibiotics.; type: functional
[9] = molecular target: Peroxisome proliferator-activated receptor gamma/Nuclear receptor coactivator 1 (Homo sapiens, UniProt P37231); type: functional;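 further: agonist potency as compounds enhance coactivator SRC-1 recruitment to PPARgamma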
Peroxisome proliferator-activated receptor gamma/Nuclear receptor coactivator 1, sequence (P37231 whole entry): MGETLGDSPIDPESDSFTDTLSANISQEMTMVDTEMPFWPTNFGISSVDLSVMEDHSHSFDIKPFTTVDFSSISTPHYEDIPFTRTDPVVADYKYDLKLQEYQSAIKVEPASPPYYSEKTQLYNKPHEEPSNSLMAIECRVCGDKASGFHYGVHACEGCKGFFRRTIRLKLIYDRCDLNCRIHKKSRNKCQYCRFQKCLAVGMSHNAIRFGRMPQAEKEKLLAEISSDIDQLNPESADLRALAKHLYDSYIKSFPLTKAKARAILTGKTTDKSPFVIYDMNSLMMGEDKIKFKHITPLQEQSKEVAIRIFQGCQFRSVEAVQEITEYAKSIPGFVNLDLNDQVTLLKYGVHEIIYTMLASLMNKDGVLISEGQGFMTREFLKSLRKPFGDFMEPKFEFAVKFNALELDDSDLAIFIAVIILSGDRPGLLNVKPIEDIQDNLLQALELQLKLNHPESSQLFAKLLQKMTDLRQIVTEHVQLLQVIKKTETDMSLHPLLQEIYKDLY
Peroxisome proliferator-activated receptor gamma/Nuclear receptor coactivator 1, sequence (Q15788 whole entry, further chain): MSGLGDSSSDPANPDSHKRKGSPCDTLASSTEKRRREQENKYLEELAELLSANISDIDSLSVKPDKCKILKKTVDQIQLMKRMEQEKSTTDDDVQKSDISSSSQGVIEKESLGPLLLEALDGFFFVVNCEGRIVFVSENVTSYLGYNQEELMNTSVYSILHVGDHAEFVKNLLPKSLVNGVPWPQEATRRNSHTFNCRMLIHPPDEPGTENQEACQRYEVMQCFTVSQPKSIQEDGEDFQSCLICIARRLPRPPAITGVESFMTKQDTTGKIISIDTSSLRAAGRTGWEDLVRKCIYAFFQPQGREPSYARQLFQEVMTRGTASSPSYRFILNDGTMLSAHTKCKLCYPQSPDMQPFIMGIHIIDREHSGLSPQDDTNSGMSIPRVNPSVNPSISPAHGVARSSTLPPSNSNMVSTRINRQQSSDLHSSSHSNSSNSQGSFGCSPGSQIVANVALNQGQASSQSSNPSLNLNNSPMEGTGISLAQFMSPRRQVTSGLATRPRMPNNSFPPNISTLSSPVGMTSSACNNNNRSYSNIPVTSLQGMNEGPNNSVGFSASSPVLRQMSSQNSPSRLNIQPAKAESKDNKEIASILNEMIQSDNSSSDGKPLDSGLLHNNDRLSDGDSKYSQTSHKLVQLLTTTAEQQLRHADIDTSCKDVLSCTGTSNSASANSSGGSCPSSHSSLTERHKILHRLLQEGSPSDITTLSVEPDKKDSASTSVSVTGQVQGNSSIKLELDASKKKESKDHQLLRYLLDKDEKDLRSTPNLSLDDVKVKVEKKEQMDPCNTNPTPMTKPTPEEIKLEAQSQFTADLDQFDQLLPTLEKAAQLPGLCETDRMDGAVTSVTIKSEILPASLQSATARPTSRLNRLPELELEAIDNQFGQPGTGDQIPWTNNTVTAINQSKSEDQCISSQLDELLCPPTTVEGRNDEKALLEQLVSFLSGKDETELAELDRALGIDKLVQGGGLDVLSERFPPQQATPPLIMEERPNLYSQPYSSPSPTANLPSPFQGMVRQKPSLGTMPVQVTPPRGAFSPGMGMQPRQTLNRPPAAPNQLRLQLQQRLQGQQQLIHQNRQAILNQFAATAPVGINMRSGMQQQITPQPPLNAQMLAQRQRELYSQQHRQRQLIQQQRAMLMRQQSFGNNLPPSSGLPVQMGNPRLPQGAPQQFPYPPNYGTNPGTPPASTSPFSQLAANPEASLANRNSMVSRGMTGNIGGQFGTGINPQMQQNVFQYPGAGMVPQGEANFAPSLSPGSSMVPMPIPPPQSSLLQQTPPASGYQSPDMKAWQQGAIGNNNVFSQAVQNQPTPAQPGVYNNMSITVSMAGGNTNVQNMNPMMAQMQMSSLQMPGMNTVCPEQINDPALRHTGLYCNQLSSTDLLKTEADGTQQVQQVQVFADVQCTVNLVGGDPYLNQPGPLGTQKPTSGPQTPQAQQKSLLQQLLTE

[10] = molecular target: Peroxisome proliferator-activated receptor gamma/Nuclear receptor coactivator 2 (Homo sapiens, UniProt P37231); type: functional;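 further: agonist potency for raising coactivator recruitment to the receptor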
[11] = molecular target: Peroxisome proliferator-activated receptor gamma/Nuclear receptor coactivator 3 (Homo sapiens, UniProt P37231); type: functional;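 further: agonist potency for raising coactivator recruitment to the receptor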
Peroxisome proliferator-activated receptor gamma/Nuclear receptor coactivator 3, sequence (P37231 whole entry): as the sequence (P37231 whole entry) above
Peroxisome proliferator-activated receptor gamma/Nuclear receptor coactivator 3, sequence (Q9Y6Q9 whole entry, further chain): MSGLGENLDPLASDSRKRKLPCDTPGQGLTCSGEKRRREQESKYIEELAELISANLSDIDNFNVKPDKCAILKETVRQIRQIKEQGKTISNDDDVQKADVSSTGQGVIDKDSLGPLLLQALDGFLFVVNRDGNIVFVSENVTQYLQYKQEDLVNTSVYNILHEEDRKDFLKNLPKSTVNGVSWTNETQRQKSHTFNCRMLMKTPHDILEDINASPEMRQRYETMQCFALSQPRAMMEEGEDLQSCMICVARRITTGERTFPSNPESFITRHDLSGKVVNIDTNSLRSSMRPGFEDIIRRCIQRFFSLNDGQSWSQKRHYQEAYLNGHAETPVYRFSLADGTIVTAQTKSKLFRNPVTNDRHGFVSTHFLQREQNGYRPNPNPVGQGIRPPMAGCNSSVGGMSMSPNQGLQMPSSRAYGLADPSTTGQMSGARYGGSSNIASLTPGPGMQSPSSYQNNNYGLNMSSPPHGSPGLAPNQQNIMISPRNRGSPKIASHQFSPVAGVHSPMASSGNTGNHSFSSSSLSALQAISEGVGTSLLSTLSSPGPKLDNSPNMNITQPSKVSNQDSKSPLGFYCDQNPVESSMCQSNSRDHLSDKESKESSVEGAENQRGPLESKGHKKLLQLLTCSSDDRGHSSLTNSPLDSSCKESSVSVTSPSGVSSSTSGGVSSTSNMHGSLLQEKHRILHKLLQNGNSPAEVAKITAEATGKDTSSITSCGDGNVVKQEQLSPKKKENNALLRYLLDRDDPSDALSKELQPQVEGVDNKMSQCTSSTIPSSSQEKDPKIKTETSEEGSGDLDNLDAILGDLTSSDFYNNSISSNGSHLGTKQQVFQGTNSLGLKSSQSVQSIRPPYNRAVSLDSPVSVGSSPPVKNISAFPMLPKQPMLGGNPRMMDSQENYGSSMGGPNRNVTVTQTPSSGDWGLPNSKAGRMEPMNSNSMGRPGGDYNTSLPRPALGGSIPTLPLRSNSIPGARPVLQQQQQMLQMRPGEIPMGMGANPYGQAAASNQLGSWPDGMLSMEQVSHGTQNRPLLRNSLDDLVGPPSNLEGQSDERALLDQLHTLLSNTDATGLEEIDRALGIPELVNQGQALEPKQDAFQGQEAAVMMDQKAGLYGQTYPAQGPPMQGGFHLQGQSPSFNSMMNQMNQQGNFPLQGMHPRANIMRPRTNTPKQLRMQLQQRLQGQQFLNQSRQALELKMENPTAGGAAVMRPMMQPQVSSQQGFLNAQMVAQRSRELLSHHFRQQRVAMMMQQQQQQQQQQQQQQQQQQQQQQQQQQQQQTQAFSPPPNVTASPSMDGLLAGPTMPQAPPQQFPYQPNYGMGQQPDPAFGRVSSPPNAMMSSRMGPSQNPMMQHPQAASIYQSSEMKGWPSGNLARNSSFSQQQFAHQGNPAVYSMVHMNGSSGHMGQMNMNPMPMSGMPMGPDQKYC

[12] = HEp-2 cell cytotoxicity, dose response, cytotoxicity control for RSV inhibitor project, HTS (AID 2410); type: functional; settings: human respiratory syncytial virus
[13] = insulin promoter down-regulators in MIN6 cells, imaging, high-content screening, mouse beta cells (AID 1628); type: functional
[14] = cytotoxicity in MIN6 insulinoma cells, dose response, cytotoxicity control, cell-based, mouse insulinoma (AID 2122); type: functional;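 further: confirmatory high-throughput counterscreen run to flag cytotoxic compounds; mouse MIN-6 beta cells carrying an insulin promoter eGFP reporter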
Mucolipin-3 = molecular target: T5, Mucolipin-3 (Homo sapiens, UniProt Q8TDD5); experiment: Dose response cell-based high-throughput screening assay for agonists of the transient receptor potential channel ML3 (TRPML3). [Related pubchem assays: 1526, 1424, 1448 ]; type: functional
T5 sequence (Q8TDD5 whole entry): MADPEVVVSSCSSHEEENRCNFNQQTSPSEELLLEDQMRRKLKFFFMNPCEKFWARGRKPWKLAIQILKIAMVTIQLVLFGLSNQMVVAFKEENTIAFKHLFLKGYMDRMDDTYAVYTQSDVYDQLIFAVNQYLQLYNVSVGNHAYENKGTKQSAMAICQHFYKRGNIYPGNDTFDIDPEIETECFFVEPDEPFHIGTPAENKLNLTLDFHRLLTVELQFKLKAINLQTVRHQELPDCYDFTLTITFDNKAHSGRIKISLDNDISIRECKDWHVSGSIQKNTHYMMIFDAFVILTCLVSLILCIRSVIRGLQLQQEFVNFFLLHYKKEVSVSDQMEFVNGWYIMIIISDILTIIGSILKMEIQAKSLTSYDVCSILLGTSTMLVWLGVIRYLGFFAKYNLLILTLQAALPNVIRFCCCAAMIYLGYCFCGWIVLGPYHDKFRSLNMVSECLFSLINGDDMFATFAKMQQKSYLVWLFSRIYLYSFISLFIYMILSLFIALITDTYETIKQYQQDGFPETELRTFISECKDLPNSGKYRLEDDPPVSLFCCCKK

Ion channel NompC = Ion channel NompC (Danio rerio, UniProt Q7T1G6); experiment: Fluorescence counterscreen assay for TRPML3 agonists: dose response cell-based high-throughput screening assay to identify agonists of the transient receptor potential channel N1 (TRPN1). [Related pubchem assays: 1526, 1424, 1448 ]; type: functional
Cytochrome P450 1A2 = molecular target: T6, Cytochrome P450 1A2 (Homo sapiens, UniProt P05177);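 further: PubChem cytochrome P450 panel assay, CYP1A2 panel member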
T6 sequence (P05177 whole entry): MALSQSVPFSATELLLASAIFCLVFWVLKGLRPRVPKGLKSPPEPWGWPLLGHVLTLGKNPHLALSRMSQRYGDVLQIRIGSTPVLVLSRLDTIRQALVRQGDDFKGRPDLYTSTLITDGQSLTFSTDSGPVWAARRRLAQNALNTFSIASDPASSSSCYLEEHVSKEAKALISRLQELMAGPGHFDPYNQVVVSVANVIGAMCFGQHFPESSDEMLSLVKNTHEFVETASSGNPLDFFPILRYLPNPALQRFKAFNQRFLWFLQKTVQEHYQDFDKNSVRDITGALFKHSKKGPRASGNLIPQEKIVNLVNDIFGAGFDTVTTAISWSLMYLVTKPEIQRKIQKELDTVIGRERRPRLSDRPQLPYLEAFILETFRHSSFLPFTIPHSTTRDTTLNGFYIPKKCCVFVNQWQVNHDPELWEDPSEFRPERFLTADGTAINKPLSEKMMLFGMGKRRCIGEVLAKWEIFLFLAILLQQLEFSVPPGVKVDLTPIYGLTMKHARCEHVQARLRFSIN

[15] = molecular target: T7, Polyadenylate-binding protein 1 (Homo sapiens, UniProt P11940); experiment: PABP1 MLLE–PAM2 interaction inhibitors, dose response, miRNA deadenylation inhibitor project, biochemical, fluorescence polarization, Cy5-PAM2 peptide, secondary (AID 602260); type: functional; settings: read-out: IC50_Mean
T7 sequence (P11940 whole entry): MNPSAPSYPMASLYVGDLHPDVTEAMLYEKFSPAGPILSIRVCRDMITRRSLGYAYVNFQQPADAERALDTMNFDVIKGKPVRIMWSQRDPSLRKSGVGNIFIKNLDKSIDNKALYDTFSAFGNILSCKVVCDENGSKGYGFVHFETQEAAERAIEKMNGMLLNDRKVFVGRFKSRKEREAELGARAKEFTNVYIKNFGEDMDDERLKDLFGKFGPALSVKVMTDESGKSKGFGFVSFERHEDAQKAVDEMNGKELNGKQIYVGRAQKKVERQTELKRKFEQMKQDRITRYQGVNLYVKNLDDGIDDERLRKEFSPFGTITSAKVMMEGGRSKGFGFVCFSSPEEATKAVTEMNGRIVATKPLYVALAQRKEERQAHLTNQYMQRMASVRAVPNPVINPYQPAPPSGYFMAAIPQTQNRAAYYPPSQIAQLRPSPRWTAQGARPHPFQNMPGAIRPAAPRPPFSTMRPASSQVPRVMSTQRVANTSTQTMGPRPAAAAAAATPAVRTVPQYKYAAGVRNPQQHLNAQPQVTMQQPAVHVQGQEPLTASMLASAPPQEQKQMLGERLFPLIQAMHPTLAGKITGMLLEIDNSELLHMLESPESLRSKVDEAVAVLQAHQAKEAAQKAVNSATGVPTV

[16] = molecular target: T7, Polyadenylate-binding protein 1; experiment: PABP1 MLLE–PAM2 binding inhibitor potency, dose response, biochemical, fluorescence polarization, FITC-PAM2 peptide (AID 602259); type: functional; settings: read-out: IC50_Mean

COc1ccc(-c2cc(-c3ccc(OC)cc3)[nH]n2)cc1
IC50 [1]: > 50 µM (active)

COc1ccccc1-n1nnnc1S(=O)(=O)Cc1ccc(Cl)cc1
EC50 [2]: 17.3 µM (active)
AC50 [3]: 5.1 µM (active)
EC50 [4]: 6.84 µM (active)
EC50 (Protein RecA): 1.94 µM (active)
EC50 [5]: 9.56 µM (active)

N#Cc1cccc2c1-c1ccccc1/C2=N/NC(N)=O
IC50 [1]: > 100 µM (active)
EC50 [6]: 0.0533 µM (active)
CC50 [7]: > 40 µM (active)

Cc1nc(SCC(=O)Nc2ccc(F)cc2)c(C#N)c(C)c1CC(=O)c1ccc(Br)cc1
CC50 [8]: 9.4 µM (active)
EC50 [9]: 13.8 µM (not active)
EC50 [10]: 9.89 µM (active)
EC50 [11]: 24.8 µM (not active)

Cc1sc(-n2c(C)cc(/C=N/n3cnnc3)c2C)c(C#N)c1C
EC50 [9]: > 79.4 µM (not active)
EC50 [10]: > 79.4 µM (not active)
EC50 [11]: > 79.4 µM (not active)

O=C(NC1=NCCS1)c1cc(-c2ccc(-c3ccccc3)cc2)nc2ccccc12
IC50 (cells): 21.7 µM (active)
CC50 [12]: 21.9 µM (active)

Cc1ccc(C(C)C)c(OCC(=O)Nc2ccccc2N2CCN(C)CC2)c1
IC50 [13]: 2.58 µM (active)
EC50 [4]: > 20 µM (not active)
IC50 [14]: 6.82 µM (active)
EC50 [5]: > 20 µM (not active)

O=S(=O)(C=C(c1ccccc1)c1ccccc1)c1ccccc1
EC50 (Mucolipin-3): 2.82 µM (active)
EC50 (Ion channel NompC): > 29.9 µM (not active)
AC50 (Cytochrome P450 1A2): 28.2 µM (inconclusive)

Cc1ccc(N2C(=O)C3CCC(c4ccccc4)CC3C2=O)cc1 (configuration not stated)
EC50 [9]: > 79.4 µM (not active)
EC50 [10]: > 79.4 µM (not active)
EC50 [11]: > 79.4 µM (not active)

CCOC(=O)CSc1nc2c(sc(=S)n2-c2ccccc2OC)c(=O)n1Cc1ccco1
EC50 (Mucolipin-3): 0.37 µM (active)
EC50 (Ion channel NompC): > 29.9 µM (not active)
IC50 [15]: > 66 µM (inactive)
IC50 [16]: > 66 µM (inactive)
